Laboratory results: US20240208901A1, “Deuterated 3,3'-Diselenodipropionic Acid (DSePA) and Its Use as an Anticancer or Radioprotective Agent” (Secretary, Department of Atomic Energy, priority 2022, published 2024)

Columns and labels:
Format in all cases: cell-based, human
A549 cells = assay: MTT assay, anti-proliferative effect in A549 cells; details: Homo sapiens, 48 h treatment, read-out: IC50 to inhibit cell proliferation
Protocol: (§1) Therefore, D-DSePA was compared with un-deuterated DSePA for its anticancer activity in A549, H1975 and H3122 cell lines which are representative of NSCLC. For this, above cells were treated with the varying concentrations (0.1-100 μM) of DSePA/D-DSePA for 48 h and the cell viability was determined by MTT assay (FIG. 9A-C). The plot of percent (%) cytotoxicity (100-% viability) versus the concentration of DSePA/D-DSePA was used to estimate the half maximum concentration (IC50) of above compounds to inhibit the proliferation of cells. […] Employing these values, the therapeutic index (IC50 in normal lung cell/IC50 in lung cancer cell) of DSePA and D-DSePA in different pairs of normal versus cancerous cells (viz., A549/WI-38, A549/WI-26 VA4, H1975/WI-38, H1975/WI-26 VA4, H3122/WI-38 and H3122/WI-26 VA4) was calculated (Table-3). […]
(§2) MTT Assay—To evaluate the anti-proliferative effect of D-DScPA and DScPA, Cells (˜5×10^3) suspended in 100 μl of complete culture medium were seeded in each well of 96 well plates. […] The percentage (%) cytotoxicity was calculated from the decrease in absorbance at 570 nm of treated groups as compared to that of control group. […] The therapeutic index was calculated by normalizing the IC50 concentration of D-DSePA/DSePA in non-cancerous cells to that in cancerous cells.

H3122 cells = assay: MTT assay, anti-proliferative effect in H3122 cells; details: Homo sapiens, NCI-H3122, 48 h treatment, read-out: IC50 to inhibit cell proliferation
Protocol: as §1, §2

H1975 cells = assay: MTT assay, anti-proliferative effect in H1975 cells; details: Homo sapiens, NCI-H1975, 48 h treatment, read-out: IC50 to inhibit cell proliferation
Protocol: as §1, §2

O=C(O)CC[Se][Se]CCC(=O)O [DSePA, 3,3′-diselenodipropionic acid]
IC50 (A549 cells): 15.2 ± 1 µM | IC50 (H3122 cells): 21.5 ± 1.2 µM | IC50 (H1975 cells): 10.6 ± 1.1 µM
